In ChEMBL document CHEMBL1123020:

Columns and labels:
[1] = biological target: Beta-1 adrenergic receptor (Homo sapiens) (UniProt P08588); settings: Canis lupus familiaris
Description: Apparent pA2 value for myocardial contractile force (beta-1) evaluated against beta-1 adrenergic receptor in anesthetized dogs

[2] = biological target: Adrenergic receptor beta; ADRB1 & ADRB2 (Homo sapiens) (UniProt P08588+P07550); settings: Canis lupus familiaris
Description: Apparent pA2 value for blockade of isoproterenol-induced increase in heart rate evaluated against beta adrenergic receptor in anesthetized dogs

[3] = biological target: Beta-2 adrenergic receptor (Canis lupus familiaris) (UniProt P54833); experiment: Apparent pA2 value for isoproterenol-induced vasodilation (beta2) evaluated against beta-2 adrenergic receptor in anesthetized dogs
Chain of Beta-2 adrenergic receptor (Canis lupus familiaris) (P54833 whole entry, looked up): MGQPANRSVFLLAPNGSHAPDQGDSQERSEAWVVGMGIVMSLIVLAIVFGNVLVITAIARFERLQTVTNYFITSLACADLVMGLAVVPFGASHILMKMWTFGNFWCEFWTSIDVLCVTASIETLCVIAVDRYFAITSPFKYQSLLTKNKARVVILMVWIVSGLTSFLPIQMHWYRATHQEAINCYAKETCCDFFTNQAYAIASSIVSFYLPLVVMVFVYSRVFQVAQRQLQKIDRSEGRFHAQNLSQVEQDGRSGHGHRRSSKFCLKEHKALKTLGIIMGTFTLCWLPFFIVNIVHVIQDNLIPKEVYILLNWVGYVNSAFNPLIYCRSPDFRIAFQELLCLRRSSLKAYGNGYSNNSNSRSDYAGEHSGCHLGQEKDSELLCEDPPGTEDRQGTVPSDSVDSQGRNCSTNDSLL

Chain of Adrenergic receptor beta; ADRB1 & ADRB2 (Homo sapiens) (P07550 whole entry, looked up): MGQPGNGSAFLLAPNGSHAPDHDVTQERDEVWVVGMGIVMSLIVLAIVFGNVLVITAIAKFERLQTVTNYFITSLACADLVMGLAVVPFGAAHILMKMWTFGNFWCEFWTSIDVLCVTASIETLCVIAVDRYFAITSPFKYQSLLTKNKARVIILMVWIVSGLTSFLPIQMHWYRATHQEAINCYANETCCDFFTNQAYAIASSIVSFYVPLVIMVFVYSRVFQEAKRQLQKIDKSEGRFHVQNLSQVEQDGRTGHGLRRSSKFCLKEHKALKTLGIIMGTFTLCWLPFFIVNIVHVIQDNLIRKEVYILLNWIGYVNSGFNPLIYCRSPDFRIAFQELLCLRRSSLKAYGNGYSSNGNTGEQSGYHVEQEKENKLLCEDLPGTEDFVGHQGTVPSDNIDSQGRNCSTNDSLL
Chain of Adrenergic receptor beta; ADRB1 & ADRB2 (Homo sapiens) (P08588 whole entry, looked up): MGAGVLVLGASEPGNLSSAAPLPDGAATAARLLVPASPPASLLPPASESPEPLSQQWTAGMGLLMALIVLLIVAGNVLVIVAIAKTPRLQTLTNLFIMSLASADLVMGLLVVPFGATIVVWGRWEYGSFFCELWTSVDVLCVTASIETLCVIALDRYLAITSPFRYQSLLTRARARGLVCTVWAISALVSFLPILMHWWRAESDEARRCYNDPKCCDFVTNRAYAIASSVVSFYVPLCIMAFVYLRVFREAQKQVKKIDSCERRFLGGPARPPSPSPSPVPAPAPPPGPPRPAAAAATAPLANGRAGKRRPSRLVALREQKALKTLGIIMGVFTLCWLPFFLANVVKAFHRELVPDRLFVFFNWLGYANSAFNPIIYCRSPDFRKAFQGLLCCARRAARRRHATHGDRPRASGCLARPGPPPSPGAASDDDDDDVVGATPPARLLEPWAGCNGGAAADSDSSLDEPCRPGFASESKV
Chain of Beta-1 adrenergic receptor (Homo sapiens) (P08588 whole entry, looked up): as above

CC(C)NCC(O)COc1ccc(O)c2ccccc12 (stereo not drawn)
Contractile force [1]: 4.75 | Heart rate [2]: 5.12 | Vasodilation [3]: 4.82
